The source made the active and inactive calls.
Experiments:
[1] = restored growth of temperature-sensitive Burl-1 yeast – whole organism, S. cerevisiae, Burl-1 ts mutant, luminescence, counter-screen for SUMOylation pathway inhibitor project, dose response (AID 463199); format: functional
Vero [2] = test: cells; format: functional, cell-based; conditions: Chlorocebus sabaeus
[3] = viability of uninfected HEp-2 cells – cell-based, HTS, cytotoxicity control for RSV inhibitor project, dose response (AID 2410); format: functional; conditions: human respiratory syncytial virus
A-375 [4] = test: proliferation inhibition in MITF-low A375 cells – cell-based, cherry-pick samples, set 2, counter-screen for MITF modulator project, dose response (AID 540335); format: functional; conditions: Homo sapiens
A-375 [5] = test: MITF: Counter assay: A375 proliferation Measured in Cell-Based System Using Plate Reader - 2084-03_Inhibitor_Dose_DryPowder_Activity. [Related pubchem assays (depositor defined):AID488944]; format: functional; conditions: Homo sapiens
[6] = biological target: Nucleotide-binding oligomerization domain-containing protein 2 (Homo sapiens, UniProt Q9HC29); test: inhibition of NOD2-driven NF-kB reporter – cell-based, luminescence, uHTS, HEK293 (AID 1566); format: functional
Chain of Nucleotide-binding oligomerization domain-containing protein 2 (Q9HC29 whole entry, the tested form may be a part): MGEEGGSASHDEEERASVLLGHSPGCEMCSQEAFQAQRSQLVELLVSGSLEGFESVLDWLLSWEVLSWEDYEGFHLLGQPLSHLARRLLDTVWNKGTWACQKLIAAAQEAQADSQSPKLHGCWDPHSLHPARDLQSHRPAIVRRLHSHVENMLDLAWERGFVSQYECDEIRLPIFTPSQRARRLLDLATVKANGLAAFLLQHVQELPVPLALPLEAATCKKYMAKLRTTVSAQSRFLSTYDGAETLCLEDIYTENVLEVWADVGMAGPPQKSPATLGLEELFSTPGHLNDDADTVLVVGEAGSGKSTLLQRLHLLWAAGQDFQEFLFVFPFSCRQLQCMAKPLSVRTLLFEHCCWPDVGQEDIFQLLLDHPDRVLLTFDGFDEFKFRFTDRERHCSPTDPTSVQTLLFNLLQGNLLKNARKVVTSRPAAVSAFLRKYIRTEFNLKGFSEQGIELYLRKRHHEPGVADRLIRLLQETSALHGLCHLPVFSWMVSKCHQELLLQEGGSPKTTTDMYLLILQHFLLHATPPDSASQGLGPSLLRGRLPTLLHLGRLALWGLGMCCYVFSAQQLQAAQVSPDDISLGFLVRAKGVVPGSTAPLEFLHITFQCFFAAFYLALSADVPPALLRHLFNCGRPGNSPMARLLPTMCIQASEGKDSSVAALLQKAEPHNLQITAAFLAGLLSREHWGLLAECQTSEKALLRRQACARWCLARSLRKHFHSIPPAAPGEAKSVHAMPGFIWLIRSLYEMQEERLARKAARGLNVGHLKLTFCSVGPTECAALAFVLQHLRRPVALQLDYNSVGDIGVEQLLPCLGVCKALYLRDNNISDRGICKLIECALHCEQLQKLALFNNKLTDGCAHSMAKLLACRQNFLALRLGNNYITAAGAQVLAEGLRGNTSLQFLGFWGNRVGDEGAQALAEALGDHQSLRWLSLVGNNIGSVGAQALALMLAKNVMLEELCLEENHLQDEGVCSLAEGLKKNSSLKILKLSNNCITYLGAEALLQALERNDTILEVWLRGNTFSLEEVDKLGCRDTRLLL

HEK293 [7] = test: HEK293T cell viability loss, resazurin readout – resazurin fluorescence, cytotoxicity control for NF-kB activator project, SAR follow-up (AID 493251); format: functional, cell-based; conditions: Homo sapiens
HEK293 [8] = test: inhibition of NOD1-driven NF-kB reporter – cell-based, luminescence, uHTS, primary screen (AID 1578); format: functional; conditions: Homo sapiens
HEK293 [9] = test: NOD2 signaling inhibitors in MDP-stimulated cells, cell-based, uHTS, luminescence (AID 2001); format: functional; conditions: Homo sapiens
HEK293 [10] = test: cells; format: functional, cell-based; conditions: Homo sapiens
[11] = biological target: T1, Microphthalmia-associated transcription factor (Homo sapiens, UniProt O75030); test: reducers of TRPM1 reporter luminescence, concentration series – cell-based, SK-MEL-5, cherry-picked, set 3, MITF inhibitor project, dose response (AID 493073); format: functional;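 further: SK-MEL-5 melanoma cells with luciferase driven by the MITF target TRPM1 promoter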
T1 sequence (O75030 whole entry): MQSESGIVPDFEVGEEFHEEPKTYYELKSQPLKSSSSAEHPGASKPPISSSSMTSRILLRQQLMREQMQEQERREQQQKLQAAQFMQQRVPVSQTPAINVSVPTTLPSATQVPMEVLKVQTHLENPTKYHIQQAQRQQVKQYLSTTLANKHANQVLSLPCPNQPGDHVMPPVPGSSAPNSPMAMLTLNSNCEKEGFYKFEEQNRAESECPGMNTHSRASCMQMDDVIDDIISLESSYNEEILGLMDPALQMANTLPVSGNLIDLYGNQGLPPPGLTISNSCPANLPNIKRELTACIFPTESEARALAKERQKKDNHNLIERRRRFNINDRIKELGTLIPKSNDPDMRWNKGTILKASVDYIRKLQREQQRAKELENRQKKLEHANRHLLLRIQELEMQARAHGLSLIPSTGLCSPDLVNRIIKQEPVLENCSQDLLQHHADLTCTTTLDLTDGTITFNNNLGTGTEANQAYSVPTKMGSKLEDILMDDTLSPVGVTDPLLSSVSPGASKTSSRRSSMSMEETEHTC

HEK293 [12] = test: cells; format: functional, cell-based; conditions: Homo sapiens; remark: listed apart in the source
HEK293 [13] = test: SAR Analysis of small molecule inhibitors of T-cell specific antigen receptor-induced NF-kB activation in a HEK-293T cell line using a luminescence assay - Set 2. [Related pubchem assays (depositor defined):AID435003, AID435012, AID489026]; format: functional, cell-based; conditions: Homo sapiens
HEK293 [14] = test: cells; format: functional, cell-based; conditions: Homo sapiens; remark: listed apart in the source
Jurkat = test: SAR Analysis of small molecule inhibitors of T-cell specific antigen receptor-induced NF-kB activation in a Jurkat cell line using a luminescence assay - Set 2. [Related pubchem assays (depositor defined):AID435003, AID435012, AID465]; format: functional, cell-based; conditions: Homo sapiens
Escherichia coli [15] = test: microbe, parasite or virus in culture
[16] = biological target: NAD-dependent protein deacylase sirtuin-5, mitochondrial (Homo sapiens, UniProt Q9NXA8); test: sirtuin-5 deacylation blockers, concentration series – biochemical, fluorescence imaging, cherry-pick, set 5, dose response (AID 720591);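 further: desuccinylation of succinyl peptide AMC substrate read as fluorescence after trypsin release; potency of inhibitors that lower fluorescence and may act on trypsin instead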
Genome polyprotein = Genome polyprotein (dengue virus type 2, UniProt P29990); test: flavivirus cap methylation enzyme inhibition – biochemical, confirmation dose response, primary screen (AID 588689); format: functional
Chain of Genome polyprotein (P29990 2492-3391 limits assumed): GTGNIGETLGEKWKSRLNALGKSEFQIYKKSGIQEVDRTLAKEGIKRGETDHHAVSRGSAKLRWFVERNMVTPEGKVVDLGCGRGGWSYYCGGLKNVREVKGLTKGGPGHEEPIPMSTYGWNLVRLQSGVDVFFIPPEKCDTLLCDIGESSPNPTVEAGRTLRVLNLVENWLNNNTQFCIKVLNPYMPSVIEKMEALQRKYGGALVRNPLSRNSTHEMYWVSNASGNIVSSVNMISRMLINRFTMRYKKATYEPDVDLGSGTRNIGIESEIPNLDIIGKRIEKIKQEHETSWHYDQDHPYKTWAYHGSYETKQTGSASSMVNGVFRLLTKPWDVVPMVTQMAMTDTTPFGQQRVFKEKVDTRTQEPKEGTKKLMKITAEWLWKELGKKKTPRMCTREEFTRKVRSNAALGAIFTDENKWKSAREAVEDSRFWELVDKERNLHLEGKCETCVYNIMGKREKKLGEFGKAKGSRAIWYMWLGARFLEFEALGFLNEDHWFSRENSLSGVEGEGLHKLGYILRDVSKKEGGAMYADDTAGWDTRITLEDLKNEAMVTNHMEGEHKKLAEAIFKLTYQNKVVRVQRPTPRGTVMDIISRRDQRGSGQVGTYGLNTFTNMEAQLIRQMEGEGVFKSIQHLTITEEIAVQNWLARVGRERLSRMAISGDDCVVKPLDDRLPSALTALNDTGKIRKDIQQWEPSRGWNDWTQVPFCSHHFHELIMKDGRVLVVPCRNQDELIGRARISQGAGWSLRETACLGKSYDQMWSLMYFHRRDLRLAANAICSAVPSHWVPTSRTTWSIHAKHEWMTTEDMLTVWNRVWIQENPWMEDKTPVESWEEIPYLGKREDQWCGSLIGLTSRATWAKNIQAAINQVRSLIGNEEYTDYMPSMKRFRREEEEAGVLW

[17] = biological target: Lysine-specific demethylase 4C (Homo sapiens, UniProt Q9H3R0); test: inhibition of JMJD2C H3K9me3 demethylation – biochemical, DELFIA europium, cherry-picked samples, dose response (AID 488835); format: functional
Vero [18] = test: viability of Vero cells under compound – cytotoxicity control for flavivirus capping enzyme inhibitors (AID 588742); format: functional; conditions: Chlorocebus sabaeus
[19] = biological target: T2, Corticotropin-releasing factor receptor 2/Corticotropin-releasing factor-binding protein (Homo sapiens, UniProt P24387+Q13324); test: Dose Response confirmation of uHTS hits for small molecule antagonists of the CRF-binding protein and CRF-R2 receptor complex.; format: functional; conditions: read-out: IC50_Mean
T2 sequence (Q13324 whole entry): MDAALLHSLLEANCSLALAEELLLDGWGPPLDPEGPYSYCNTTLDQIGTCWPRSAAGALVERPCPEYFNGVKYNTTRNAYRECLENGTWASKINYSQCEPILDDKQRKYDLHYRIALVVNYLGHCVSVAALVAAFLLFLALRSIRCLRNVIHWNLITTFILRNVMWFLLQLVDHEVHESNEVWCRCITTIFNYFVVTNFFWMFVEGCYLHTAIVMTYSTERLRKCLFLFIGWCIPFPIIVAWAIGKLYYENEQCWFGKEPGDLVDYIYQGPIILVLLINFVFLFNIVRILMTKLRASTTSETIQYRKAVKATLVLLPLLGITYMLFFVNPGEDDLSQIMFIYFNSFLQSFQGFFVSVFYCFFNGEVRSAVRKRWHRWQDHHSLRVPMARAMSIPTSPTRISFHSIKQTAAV
T2 sequence (P24387 whole entry): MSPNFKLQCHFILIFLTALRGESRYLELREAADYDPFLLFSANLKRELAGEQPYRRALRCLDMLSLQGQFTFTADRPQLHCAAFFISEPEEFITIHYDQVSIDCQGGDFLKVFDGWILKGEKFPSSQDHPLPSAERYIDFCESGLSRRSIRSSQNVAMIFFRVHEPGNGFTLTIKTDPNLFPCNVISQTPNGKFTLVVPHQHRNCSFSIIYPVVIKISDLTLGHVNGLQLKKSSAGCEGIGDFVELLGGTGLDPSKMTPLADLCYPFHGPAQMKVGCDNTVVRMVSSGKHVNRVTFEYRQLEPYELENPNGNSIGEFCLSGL

[20] = biological target: T2, Corticotropin-releasing factor receptor 2/Corticotropin-releasing factor-binding protein; test: activators of CRF receptor 2 with binding protein – uHTS hits, confirmation (AID 602473); format: functional; conditions: read-out: EC50_Mean
[21] = biological target: Lysine-specific demethylase 4A (Homo sapiens, UniProt O75164); test: inhibition of JMJD2A H3K9me3 demethylation – biochemical, DELFIA europium, cherry-picked samples, selectivity assay for GASC-1 inhibitor project, dose response (AID 488840)
Chain of Lysine-specific demethylase 4A (O75164 whole entry): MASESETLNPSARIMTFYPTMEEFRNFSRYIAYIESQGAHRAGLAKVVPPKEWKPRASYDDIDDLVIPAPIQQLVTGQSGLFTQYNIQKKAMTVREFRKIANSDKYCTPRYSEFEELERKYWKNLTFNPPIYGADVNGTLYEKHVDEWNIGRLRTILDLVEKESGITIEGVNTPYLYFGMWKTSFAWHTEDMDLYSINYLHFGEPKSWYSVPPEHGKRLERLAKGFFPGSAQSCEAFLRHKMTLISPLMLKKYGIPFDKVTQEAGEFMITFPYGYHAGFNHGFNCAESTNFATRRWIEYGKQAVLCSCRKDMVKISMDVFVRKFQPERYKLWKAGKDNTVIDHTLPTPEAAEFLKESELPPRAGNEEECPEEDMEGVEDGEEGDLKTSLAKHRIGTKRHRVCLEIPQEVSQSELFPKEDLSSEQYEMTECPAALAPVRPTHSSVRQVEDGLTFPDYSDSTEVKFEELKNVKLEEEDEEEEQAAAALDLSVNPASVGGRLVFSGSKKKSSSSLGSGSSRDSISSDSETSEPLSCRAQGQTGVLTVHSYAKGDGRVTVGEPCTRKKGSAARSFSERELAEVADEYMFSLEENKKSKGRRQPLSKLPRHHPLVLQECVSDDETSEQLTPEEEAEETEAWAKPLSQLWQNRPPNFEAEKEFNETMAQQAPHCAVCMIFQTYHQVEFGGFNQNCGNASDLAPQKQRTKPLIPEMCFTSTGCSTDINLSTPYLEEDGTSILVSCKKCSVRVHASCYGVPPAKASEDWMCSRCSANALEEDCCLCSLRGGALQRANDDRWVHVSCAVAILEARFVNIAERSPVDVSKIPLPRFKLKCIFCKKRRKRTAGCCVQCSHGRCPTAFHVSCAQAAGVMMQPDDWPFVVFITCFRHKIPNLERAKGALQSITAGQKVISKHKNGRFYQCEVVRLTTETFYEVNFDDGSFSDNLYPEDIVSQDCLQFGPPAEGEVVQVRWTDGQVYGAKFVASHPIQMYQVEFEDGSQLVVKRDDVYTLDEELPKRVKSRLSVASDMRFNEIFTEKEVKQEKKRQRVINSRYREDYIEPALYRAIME

[22] = biological target: T3, Mannose-6-phosphate isomerase (Homo sapiens, UniProt P34949); test: phosphomannose isomerase inhibition – biochemical, fluorescence intensity, confirmation (AID 1535)
T3 sequence (P34949 whole entry): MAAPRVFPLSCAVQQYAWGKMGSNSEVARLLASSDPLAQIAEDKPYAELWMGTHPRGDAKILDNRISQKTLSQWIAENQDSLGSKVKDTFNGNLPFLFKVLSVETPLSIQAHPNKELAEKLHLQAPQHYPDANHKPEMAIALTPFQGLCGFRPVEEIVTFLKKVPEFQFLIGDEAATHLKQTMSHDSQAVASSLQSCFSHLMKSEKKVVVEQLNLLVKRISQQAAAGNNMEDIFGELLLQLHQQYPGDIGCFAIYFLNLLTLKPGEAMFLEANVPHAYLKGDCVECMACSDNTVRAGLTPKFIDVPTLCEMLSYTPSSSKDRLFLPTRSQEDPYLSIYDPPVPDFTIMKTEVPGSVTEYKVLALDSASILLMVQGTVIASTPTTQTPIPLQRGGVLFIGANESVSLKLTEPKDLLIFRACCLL

[23] = biological target: Phosphoethanolamine/phosphocholine phosphatase (Homo sapiens, UniProt Q8TCT1); test: SAR assay for compounds that inhibit PHOSPHO1. [Related pubchem assays (depositor defined):AID1545, AID1565, AID1574]
Chain of Phosphoethanolamine/phosphocholine phosphatase (Q8TCT1 whole entry): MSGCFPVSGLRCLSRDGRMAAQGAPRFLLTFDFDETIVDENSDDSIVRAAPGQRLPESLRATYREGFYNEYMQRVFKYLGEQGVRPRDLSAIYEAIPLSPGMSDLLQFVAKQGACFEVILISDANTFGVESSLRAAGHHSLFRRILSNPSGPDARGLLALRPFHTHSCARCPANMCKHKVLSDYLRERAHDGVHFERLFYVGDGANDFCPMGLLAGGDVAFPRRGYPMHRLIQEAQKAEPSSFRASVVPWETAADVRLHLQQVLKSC

Phosphomannomutase 2 = Phosphomannomutase 2 (Homo sapiens, UniProt O15305); test: Counter screen SAR assay for PMM2 inhibitors via a fluorescence intensity assay. [Related pubchem assays (depositor defined):AID1545, AID1574]
Chain of Phosphomannomutase 2 (O15305 whole entry): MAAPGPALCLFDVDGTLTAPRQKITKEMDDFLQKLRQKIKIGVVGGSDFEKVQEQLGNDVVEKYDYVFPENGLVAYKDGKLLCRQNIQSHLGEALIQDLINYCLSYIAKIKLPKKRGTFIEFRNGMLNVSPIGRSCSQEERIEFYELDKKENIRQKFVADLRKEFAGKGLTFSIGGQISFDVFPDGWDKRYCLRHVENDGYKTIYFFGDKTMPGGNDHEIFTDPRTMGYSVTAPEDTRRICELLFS

Escherichia coli [24] = test: microbe, parasite or virus in culture; remark: listed apart in the source
[25] = T. cruzi infection blockers in NIH3T3 cells – beta-gal luminescence, NIH3T3 host cells, confirmation (AID 2630); format: functional, cell-based; conditions: Mus musculus
INS1 = test: beta-cell survival under cytokine stress – INS-1E, ATP luminescence, dry powder, dose response (AID 488844); format: functional, cell-based; conditions: Rattus norvegicus
[26] = biological target: Dual specificity protein phosphatase 3 (Homo sapiens, UniProt P51452); test: SAR VHR1 Fluorescent Assay for In Vitro dose response studies Set 3. [Related pubchem assays (depositor defined):AID1654, AID1661, AID1878]; format: functional
Chain of Dual specificity protein phosphatase 3 (P51452 whole entry): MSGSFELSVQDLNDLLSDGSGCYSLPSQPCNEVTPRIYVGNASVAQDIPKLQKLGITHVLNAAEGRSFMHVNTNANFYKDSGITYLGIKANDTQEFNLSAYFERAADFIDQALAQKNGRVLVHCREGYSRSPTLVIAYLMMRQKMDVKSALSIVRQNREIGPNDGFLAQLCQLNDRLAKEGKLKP

BJ [27] = test: growth inhibition of engineered Ras-driven BJ cells – cell-based, alamar blue fluorescence, cherrypicked samples, dose response (AID 2631); format: functional; conditions: Homo sapiens;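 further: confirmatory dose-response assay in RAS-dependent BJ fibroblasts engineered with TERT, LT and ST, with cytotoxicity read by fluorescence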
[28] = biological target: 5-hydroxytryptamine receptor 5A (Homo sapiens, UniProt P47898); test: Counterscreen for agonists of OPRM1-OPRD1 heterodimerization: luminescence-based cell-based high throughput dose response assay to identify agonists of 5-hydroxytryptamine (serotonin) 5A receptor (HTR5A). [Related pubchem assays (depositor defined):AID504326, AID504355, AID504692, AID504904, AID504905]; format: functional
Chain of 5-hydroxytryptamine receptor 5A (P47898 whole entry): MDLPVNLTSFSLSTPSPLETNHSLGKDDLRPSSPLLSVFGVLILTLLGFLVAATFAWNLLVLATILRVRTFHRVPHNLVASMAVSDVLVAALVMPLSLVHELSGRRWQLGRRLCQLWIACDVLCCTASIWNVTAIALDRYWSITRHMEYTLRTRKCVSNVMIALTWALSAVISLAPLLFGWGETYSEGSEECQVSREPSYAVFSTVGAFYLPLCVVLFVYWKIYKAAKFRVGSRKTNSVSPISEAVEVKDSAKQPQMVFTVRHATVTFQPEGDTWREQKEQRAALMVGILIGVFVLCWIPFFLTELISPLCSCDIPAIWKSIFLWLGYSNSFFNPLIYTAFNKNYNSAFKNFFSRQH

[29] = DRD fibroblast viability loss – cell-based, non-viral oncogenic, luminescence, dose response (AID 1934); format: functional; conditions: Homo sapiens
[30] = biological target: Delta-type opioid receptor (Homo sapiens, UniProt P41143); test: Counterscreen for agonists of heterodimerization of the mu 1 (OPRM1) and delta 1 (OPRD1) opioid receptors: Luminescence-based cell-based high throughput dose response assay to identify agonists of OPRD1 homodimerization. [Related pubchem assays (depositor defined):AID504326, AID504355, AID504692, AID504904, AID504905]; format: functional
Chain of Delta-type opioid receptor (P41143 whole entry): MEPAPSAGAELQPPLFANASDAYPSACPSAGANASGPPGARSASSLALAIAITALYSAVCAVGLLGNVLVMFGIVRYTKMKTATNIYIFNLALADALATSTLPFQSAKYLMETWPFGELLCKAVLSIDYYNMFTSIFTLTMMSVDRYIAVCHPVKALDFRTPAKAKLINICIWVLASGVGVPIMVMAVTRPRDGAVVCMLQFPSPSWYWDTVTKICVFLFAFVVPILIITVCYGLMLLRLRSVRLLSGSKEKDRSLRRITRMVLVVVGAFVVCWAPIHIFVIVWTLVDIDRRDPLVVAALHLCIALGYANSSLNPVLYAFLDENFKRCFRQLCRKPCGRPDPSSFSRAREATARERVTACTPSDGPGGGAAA

Mu-type opioid receptor = Mu-type opioid receptor (Homo sapiens, UniProt P35372); test: Counterscreen for agonists of heterodimerization of the mu 1 (OPRM1) and delta 1 (OPRD1) opioid receptors: Luminescence-based cell-based high throughput dose response assay to identify agonists of OPRM1 homodimerization.; format: functional;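 further: U2OS cells expressing OPRM1 and beta-arrestin as split beta-galactosidase partners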
Chain of Mu-type opioid receptor (P35372 whole entry): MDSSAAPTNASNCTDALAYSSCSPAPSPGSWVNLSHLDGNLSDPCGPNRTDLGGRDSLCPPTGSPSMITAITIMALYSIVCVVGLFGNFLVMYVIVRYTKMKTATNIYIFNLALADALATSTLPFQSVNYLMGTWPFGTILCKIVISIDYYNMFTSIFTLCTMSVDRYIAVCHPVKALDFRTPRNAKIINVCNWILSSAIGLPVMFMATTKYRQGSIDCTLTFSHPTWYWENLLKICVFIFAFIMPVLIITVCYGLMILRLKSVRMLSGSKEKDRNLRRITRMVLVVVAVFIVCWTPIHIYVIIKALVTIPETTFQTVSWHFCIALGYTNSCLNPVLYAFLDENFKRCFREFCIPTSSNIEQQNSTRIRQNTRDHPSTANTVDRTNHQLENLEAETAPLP

[31] = Luminescence Cell-Based Dose Confirmation HTS to Identify Inhibitors of Platelet Dense Granule Release. [Related pubchem assays: 1663 (Primary HTS), 1678 (Summary of Project)]; format: functional
BJ [32] = test: BJ-TERT fibroblast viability loss – cell-based, RAS-independent, luminescence, dose response (AID 1933); format: functional; conditions: Homo sapiens
BJ [33] = test: BJ-TERT-LT-ST fibroblast viability loss – cell-based, RAS-independent, luminescence, dose response (AID 1935); format: functional; conditions: Homo sapiens;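 further: BJ fibroblasts immortalized with TERT plus LT and ST oncogenes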
BJ [34] = test: cells; format: functional, cell-based; conditions: Homo sapiens
[35] = biological target: Luciferin 4-monooxygenase (Photinus pyralis, UniProt P08659); test: inhibition of purified Photinus pyralis luciferase – biochemical, luminescence, dose response (AID 1891)

C=CCN(C(=O)CNC(=O)c1ccco1)C(C(=O)NC1CCCCC1)c1ccccc1 (stereo not given)
AC50 [1]: 101 µM (active)

CC(Sc1nnc(Nc2ccccc2)s1)C(=O)Nc1nc(-c2ccccc2)cs1 (stereo not given)
IC50 (Vero [2]): > 25 µM (active)
CC50 [3]: > 50 µM (active)

O=C(NCCNc1ccccc1[N+](=O)[O-])c1cc(F)c(F)cc1Cl
AC50 (A-375 [4]): > 11 µM (active)
AC50 (A-375 [5]): > 11 µM (active)

O=C(Nc1ccc2oc(-c3cccnc3)nc2c1)c1ccc([N+](=O)[O-])o1
EC50 [6]: > 20 µM (inactive)
IC50 (HEK293 [7]): > 80 µM (inactive)
EC50 (HEK293 [8]): 7.26 µM (active)
IC50 (HEK293 [9]): 7.39 µM (active)
IC50 (HEK293 [10]): > 20 µM (inactive)
AC50 [11]: 14.2 µM (active)
IC50 (HEK293 [12]): 4.02 µM (active)
IC50 (HEK293 [13]): 51.5 µM (inactive)
IC50 (HEK293 [14]): > 20 µM (inactive)
IC50 (Jurkat): 38.7 µM (inactive)

Cc1cc(Cl)c(S(=O)(=O)NC(C(=O)O)C(C)C)cc1OCC(=O)NC1CCCCC1 (stereo not given)
AC50 (Escherichia coli [15]): 25.9 µM (active)

CCc1ccc([C@@H]2CC=C(C(=O)O)[C@H](c3ccc(C(C)(C)C)cc3)N2S(=O)(=O)c2ccc(C)cc2)cc1
AC50 [16]: 13.5 µM (active)
IC50 (Genome polyprotein): 37 µM (active)
AC50 [17]: 14.8 µM (active)
CC50 (Vero [18]): > 40 µM (active)
IC50 [19]: < 0.368 µM (active)
EC50 [20]: 27.8 µM (active)
AC50 [21]: 9.31 µM (active)

O=C1c2ccccc2C(=O)c2c1ccc1c(=O)n(-c3ccccc3)sc21
IC50 [22]: > 50 µM (inactive)
IC50 [23]: 1.96 µM (inactive)
IC50 (Phosphomannomutase 2): > 100 µM (inactive)

COc1ccc(S(=O)(=O)N2CCN(CC(=O)Nc3c(C)n[nH]c3C)CC2)cc1OC
AC50 (Escherichia coli [24]): 62.1 µM (active)

COc1ccc(C(=O)C2CCCN(CC3CCCCC3)C2)cc1OC (stereo not given)
EC50 [25]: 0.452 µM (active)

C[C@@H]1CN([C@H](C)CO)C(=O)c2cccc(NC(=O)Nc3ccccc3)c2O[C@H]1CN(C)S(=O)(=O)c1ccc(F)cc1
AC50 (INS1): 38.3 µM (active)

COc1cccc2sc(NC(=O)c3ccccc3)nc12
IC50 [26]: > 66 µM (inactive)

Cc1occc1C(=O)N/N=C/c1ccc(-c2ccccc2)cc1
EC50 (BJ [27]): > 133 µM (inactive)
EC50 [28]: > 92.4 µM (inactive)
EC50 [29]: 3.41 µM (active)
EC50 [30]: > 92.4 µM (inactive)
EC50 (Mu-type opioid receptor): > 92.4 µM (inactive)
EC50 [31]: 0.897 µM (active)
EC50 (BJ [32]): 4.43 µM (active)
EC50 (BJ [33]): 10.3 µM (active)
EC50 (BJ [34]): 3.14 µM (active)
EC50 [35]: 0.151 µM (active)
